Assay [1] deals with p16^INK4/CDKN2. The assay is described as follows: Immunohistochemical staining of p16 in MRC-5 cell nuclei. The class given is cell-based, human. Conditions: senescent cells, old media replaced with supplemented media, after a few days. The method, then: Senescent cells treated with acetyl-carnosine acquire a younger phenotype and no longer express p16 (C). Cells were stained from passage 30 until senescence was reached (approximately passage 65) in order to determine the effectiveness of p16 as a reliable biomarker.
Tissue culture cells were fixed by slowly infusing 4% paraformaldehyde in 0.1M sodium phosphate buffer pH 7.4 into the culture medium. This solution was then replaced with fixative alone and stored at −20° C. for 30 minutes. Cultures were then defrosted for 5 minutes at 37° C. and then washed with 3 changes of the 0.1M sodium phosphate buffer. […]
Three primary antibodies were used in this study: (i) murine monoclonal antibodies against cyclin-dependent kinase inhibitor p27^kipl (clone SX53G8, IgG, Loto38, DAKO, diluted 1:200); (ii) murine monoclonal antibodies against cyclin-dependent kinase inhibitor p21^WAP/CIPI (clone SX118, IgG, Loto88, DAKO, diluted 1:200); and (iii) murine monoclonal antibodies against cyclin-dependent kinase inhibitor p16^INK4/CDKN2 (clone DCS-50, IgG, Lot 077H4821, Sigma, diluted 1:200). […] An estimate of positively stained cells to specific antigens was determined. […]

Assay [2] concerns non-enzymic glycation. More on the design: key: 0 = zero effect; 10 = maximum effect. Conditions: summary grade; footnote (2) literature; cited from earlier work.
The subject of assay [3] is senescent MRC-5 cells. As to the kind of experiment: Rejuvenation of senescent MRC-5 cells (morphology). The class given is cell-based, human. Conditions: media supplemented with the compound, FIG. 4. How it is done:
MRC -5 cells (fetal lung fibroblasts) were grown in Dulbecco's modification of Eagles' minimum essential medium (DMEM Gibco BRL Cat. No. 12800-017) containing 0.45% glucose, or MEM (Gibco BRL Cat. No. 612800-017) containing 0.1% glucose. Both media contained 10% fetal calf scrum (TRACE Biosciences Cat. No. 15-010-0500V) and Penicillin/Streptomycin 5000 IU, 5000 μg/ml (TRACE Biosciences Cat. No. 21-140-0100V). Cells were grown in […] flasks or in dishes (35 mm or 60 mm, Nunc) at 37° C. with 5% CO2. Cells were harvested with trypsin (TRACE Biosciences Cat. No. 21-163-0100V) and counted with a model ZF6 Coulter Counter. Cells were split in ratios of 1:2 or 1:4. Population doublings (PDs) were calculated from the ratio of the initial number of cells plated to the yield of cells after a period of time. This provides an accurate measure of cell growth, with the split ratios 1:2 and 1:4 corresponding to one and two passages respectively, which are broadly equivalent to population doublings. The media was changed every 5 days or when cells became confluent.
It was shown above that acetyl-carnosine markedly delayed the onset of senescence by increasing the lifespan of MRC-5 cells in culture. This was confirmed by rejuvenation experiments (FIG. 4). The morphology of cells grown in media supplemented with acetyl-carnosine was distinct from the controls. […]

Molecules are shown by their SMILES.

Turning to `CC(=O)NCCC(=O)N[C@@H](Cc1cnc[nH]1)C(=O)O` [N-acetyl carnosine], the “Expression of p16 in the nucleus” value in assay [1] is “no expression of p16 in the nucleus”. For the same molecule, the “anti-glycation (2)” value in assay [2] is recorded as 0. Also, the “Morphology of cells in rejuvenation experiment” value in assay [3] is listed as “phenotype typical of younger cells”.

Source of the values: patent US20040014814A1, “Compositions and methods for delaying preventing rejuvenating or reversing senescence in cells” (priority 2000, published 2004).
